Results as given in patent US20090030015A1, “NOVEL MULTI-CYCLIC COMPOUNDS” (REVOTAR BIOPHARMACEUTICALS AG, priority 2005, published 2009).
pIC50: −log10 of the molar value.

How the values were obtained:
[1] = biological target: T1, human E-Selectin-IgG-chimera (Homo sapiens, UniProt P16581); assay: Sialyl Lewis X Tyrosine Sulfate Assay (sLex TSA), E-selectin; type: binding; details: sLexTSA; for E-Selectin [% inhib.]: in vitro inhibition at 100 μM
T1 construct: fused on or other part: human IgG Fc part, captured on the plate by goat anti human Fc antibody; a tag, no second protein
T1 sequence (P16581 22-175 limits assumed): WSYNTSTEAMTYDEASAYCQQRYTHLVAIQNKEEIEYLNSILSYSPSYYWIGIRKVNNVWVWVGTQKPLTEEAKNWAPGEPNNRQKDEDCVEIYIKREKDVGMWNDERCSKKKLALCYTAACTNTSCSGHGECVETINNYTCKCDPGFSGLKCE
Procedure: (§1) Sialyl Lewis^X Tyrosine Sulfate Assay (sLe^x TSA):
(§2) Compounds of the present invention are assayed on a molecular level for their ability to inhibit the binding of P-, L-, or E-selectin chimeric molecules to sLe^x and tyrosinesulfate residues linked to a polymeric matrix as a PSGL-1 substitute. Selected IC50-values are determined.
(§3) Microtiter plates are coated overnight in carbonate buffer pH9.6 with goat anti human Fc mAB (10 μg/ml). After washing in assay buffer (25 mM 4-(2-hydroxyethyl)-1-piperazineethanesulfonic acid (HEPES), 150 mM NaCl, 1 mM CaCl2 pH7.4) and blocking (3% bovine serum albumin (BSA) in assay buffer) plates are incubated for 2 h at 37° C. with human P-Selectin-IgG-chimera (0.61 nM respectively 150 ng/mL) or human L-Selectin-IgG-chimera (0.61 nM respectively 89 ng/mL) or human E-Selectin-IgG-chimera (0.61 nM respectively 131 ng/mL). 5 μl of sLe^x-tyrosine sulfate polyacrylamide (1 mg/ml) carrying 15% sLe^x, 10% Tyrosine-sulfate and 5% biotin is complexed with 20 μl Streptavidin-Peroxidase solution (1 mg/ml) and 25 μl assay buffer without CaCl2. For use in the assay, the ligand complex is diluted 1:10000 in assay buffer and further diluted 1:1 with varying amounts of compounds in assay buffer incl. 2% DMSO. This mixture is added to the wells precoated with E- or P-selectin. After incubation for 2 h at 37° C., wells are washed for six times with in assay buffer incl. 0.005% Polyoxyethylenesorbitan monolaurate (TWEEN 20), developed for 10-15 min with 20 μl 3,3′,5,5′-tetramethylbenzidine (TMB)/H2O2 substrate solution and stopped with 20 μl 1M H2SO4. Bound sLe^x-Tyrosine sulfate ligand complex is determined by measuring optical density at 450 nm vs. 620 nm in a Fusion alpha-FP reader (sold from Packard Bioscience, Dreieich, Germany).

[2] = biological target: T2, human L-Selectin-IgG-chimera (Homo sapiens, UniProt P14151); assay: Sialyl Lewis X Tyrosine Sulfate Assay (sLex TSA), L-selectin; type: binding; details: sLexTSA; for L-Selectin [% inhib.]: in vitro inhibition at 100 μM
T2 construct: fused on or other part: human IgG Fc part, captured on the plate by goat anti human Fc antibody; a tag, no second protein
T2 sequence (P14151 39-318 limits assumed): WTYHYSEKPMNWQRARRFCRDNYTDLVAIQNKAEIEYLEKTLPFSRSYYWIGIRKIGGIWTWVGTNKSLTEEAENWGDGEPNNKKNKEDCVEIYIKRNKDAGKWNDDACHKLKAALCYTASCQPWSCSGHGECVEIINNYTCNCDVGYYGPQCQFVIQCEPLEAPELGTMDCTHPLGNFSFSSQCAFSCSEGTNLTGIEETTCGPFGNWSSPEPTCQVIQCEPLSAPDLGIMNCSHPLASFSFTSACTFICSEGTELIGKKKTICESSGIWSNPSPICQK
Procedure: as §1, §2, §3

[3] = system: human E-selectin-IgG chimera; assay: Flow chamber assay, cell adhesion and rolling under flow conditions, E-selectin; type: cell-based; details: normalized ratio of %-inhibition of compound divided by %-inhibition of bimosiamose; 125 μM compound; HL-60 cells; flow shear 1 dyne/cm^2
Procedure: (§4) Flow Chamber Assay/Cell Adhesion and Rolling Under Flow Conditions
(§5) To assess the capability of compounds to inhibit cell binding under dynamic conditions resembling the flow in a blood vessel, flow chamber assays addressing/testing binding of HL-60 cells/various cell lines to P-selectin, L-selectin and E-selectin chimeric molecules are performed.
(§6) Cell attachment under flow conditions is determined using a parallel flow chamber system. A 35 mm polystyrene culture dish is coated for 1 hour at room temperature with coating buffer (50 mM tris-(hydroxymethyl)aminomethane buffer (Tris), 150 mM NaCl, 2 mM CaCl2; pH 7.4) containing human E- or P-selectin-IgG chimera at concentrations of 2.5 μg/ml or 10 μg/ml, respectively. After removal of the coating solution non specific binding sites are blocked for an additional hour with 1% BSA in coating buffer at room temperature. After washing with assay buffer (“Roswell Park Memorial Institute 1640” (RPMI 1640)+10 mM HEPES) the dish is fitted into a parallel plate laminar flow chamber (sold from Glycotech, Rockville, Md.) and mounted on an inverted phase-contrast microscope (sold from Olympus, Hamburg, Germany) equipped with a CCD camera (JVC) that is connected to a PC. Employing a peristaltic pump (sold from Ismatec, Wertheim-Mondfeld, Germany) the re-circulating system is equilibrated with assay buffer containing 125 μM compound or vehicle control (DMSO). Cells (1 million/ml) are added to the chamber and allowed to distribute for 2 minutes at a high flow rate. The flow rate is then decreased resulting in a calculated flow shear of 1 dyne/cm^2. Video sequences of 10 low power fields are digitally recorded after 5 minutes continuous flow. The percentage of inhibition is calculated from the mean number of cells per field that attached to the coated dish surface in the presence versus absence of compound […].

[4] = biological target: T3, human P-Selectin-IgG-chimera (Homo sapiens, UniProt P16109); assay: Sialyl Lewis X Tyrosine Sulfate Assay (sLex TSA), P-selectin; type: binding; details: sLexTSA; for P-Selectin [% inhib.]: in vitro inhibition at 100 μM
T3 sequence (P16109 42-771 limits assumed): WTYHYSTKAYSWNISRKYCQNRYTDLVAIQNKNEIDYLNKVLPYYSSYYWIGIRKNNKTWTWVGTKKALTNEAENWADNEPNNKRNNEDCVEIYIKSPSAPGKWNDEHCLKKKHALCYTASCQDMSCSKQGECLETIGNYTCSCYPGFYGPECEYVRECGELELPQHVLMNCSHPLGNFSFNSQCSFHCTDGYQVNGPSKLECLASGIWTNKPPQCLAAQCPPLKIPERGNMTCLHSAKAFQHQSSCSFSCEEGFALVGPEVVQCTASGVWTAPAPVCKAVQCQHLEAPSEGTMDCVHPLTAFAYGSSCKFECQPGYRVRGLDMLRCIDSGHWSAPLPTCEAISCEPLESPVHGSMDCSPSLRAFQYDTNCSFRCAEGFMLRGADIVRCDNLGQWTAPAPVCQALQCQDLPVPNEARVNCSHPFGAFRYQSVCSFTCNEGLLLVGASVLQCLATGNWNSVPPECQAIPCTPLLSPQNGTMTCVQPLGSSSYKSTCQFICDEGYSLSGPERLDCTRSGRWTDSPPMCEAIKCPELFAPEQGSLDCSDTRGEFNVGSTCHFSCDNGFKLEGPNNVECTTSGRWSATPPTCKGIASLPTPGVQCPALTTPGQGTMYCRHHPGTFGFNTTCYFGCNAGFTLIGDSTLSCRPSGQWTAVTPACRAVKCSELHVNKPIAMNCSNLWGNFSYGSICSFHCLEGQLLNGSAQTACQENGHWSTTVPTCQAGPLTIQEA
Procedure: as §1, §2, §3

[5] = system: human P-selectin-IgG chimera; assay: Flow chamber assay, cell adhesion and rolling under flow conditions, P-selectin; type: cell-based; details: normalized ratio of %-inhibition of compound divided by %-inhibition of bimosiamose; 125 μM compound; HL-60 cells; flow shear 1 dyne/cm^2
Procedure: as §4, §5, §6

With `COc1ccc(CC(=O)Nc2ccc(-c3cc(C(=O)O)c(C)o3)cc2)c(OC)c1` [Compound 28, 5-{4-[2-(2,4-Dimethoxy-phenyl)-acetylamino]-phenyl}-2-methyl-furan-3-carboxylic acid] the pIC50 [1] was 3.70, the pIC50 [2] was 3.50 and the “E-Selectin [Ratio]” value [3] was 0.99 Ratio. For the same compound, the pIC50 [4] was 3.62 and the “P-Selectin [Ratio]” value [5] was “n.s”.
In the case of `COc1cc(CC(=O)Nc2ccc(-c3cc(C(=O)O)c(C)o3)cc2)cc(OC)c1` [Compound 30, 5-{4-[2-(3,5-Dimethoxy-phenyl)-acetylamino]-phenyl}-2-methyl-furan-3-carboxylic acid], the pIC50 [1] was less than 3.30, the pIC50 [2] was 3.42 and the “E-Selectin [Ratio]” value [3] was 1.03 Ratio. The pIC50 [4] was 3.87 and the “P-Selectin [Ratio]” value [5] was “n.s”.
With `O=C(CCCNC(=O)c1cc(O)cc(O)c1)NCc1ccc(C(=O)O)cc1` [Compound 39] the “E-Selectin [% inhib.]” value [1] was 24.8 % inhib, the “L-Selectin [% inhib.]” value [2] was 10.9 % inhib and the “P-Selectin [% inhib.]” value [4] was 2.9 % inhib.
With `COC(=O)c1ccc(CNC(=O)CCCNC(=O)c2cc(O)cc(O)c2)cc1` [Compound 40] the “E-Selectin [% inhib.]” value [1] was 34.4 % inhib, the “L-Selectin [% inhib.]” value [2] was 31.1 % inhib and the “P-Selectin [% inhib.]” value [4] was 28.2 % inhib.
For `Cc1oc(-c2ccc(NC(=O)c3cncc(-c4ccc(O)cc4O)c3)cc2)cc1C(=O)O` [Compound 76, 5-(4-{[5-(2,4-Dihydroxy-phenyl)-pyridine-3-carbonyl]-amino}-phenyl)-2-methyl-furan-3-carboxylic acid], the pIC50 [1] was 3.32, the pIC50 [2] was 3.56 and the “E-Selectin [Ratio]” value [3] was 0.61 Ratio. The pIC50 [4] was 3.63 and the “P-Selectin [Ratio]” value [5] was 1.26 Ratio.
